# Test results reported in patent US8846761B2, “Method for treating pancreatitis” (Michigan Life Therapeutics, LLC, priority 2010, dated 2014).
# Read-outs that look alike come from different tables or passages of the source.
# Assays:
# CYP3A4 [1] = molecular target: T1, CYP3A4 (Homo sapiens, UniProt P08684); details: cited from earlier work
# [2] = tested on: patients having triglyceride levels ≧200 mg/dL; details: data reported in Bays et al., cited from earlier work
# [3] = tested on: patients having TG levels >500 mg/dL; experiment: Randomized, double-blind, placebo-controlled study of gemcabene, subset of patients entering with TG >500 mg/dL; format: in vivo, human; details: for ApoA-I average % increase / ApoB average % decrease / ApoC-III average % decrease / HDL-C average % increase / VLDL-C average % decrease / hs-CRP average % decrease / Triglycerides average % decrease: patients TG >500 mg/dL; for Triglycerides average % decrease: once daily for 12 weeks, serum, change from baseline
# Protocol: A randomized, double-blind, placebo-controlled study was conducted to evaluate the efficacy and tolerability of gemcabene in patients with HDL cholesterol levels <35 mg/dL. Patients were stratified based on whether mean serum triglyceride (TG) levels were <200 mg/dL or ≧200 mg/dL. Within each TG stratum, patients were randomized to receive either 150, 300, 600 or 900 mg of gemcabene, or placebo, once daily for 12 weeks.
# Patients were evaluated for percent change from baseline levels of serum HDL cholesterol, serum LDL cholesterol, TG, apolipoproteins A-I, A-II, B, C-III, and E, hs CRP and non-HDL cholesterol levels. Blood samples were measured at screening, randomization and at −8, −4, −2 weeks, baseline, and 2, 4, and 12 weeks after the start of study medication. In addition, HDL-C, LDL-C and TG levels were measured at 2 and 4 weeks before starting study medication. Bays H. E. et al. Am J Cardiol (2003) vol.
# When the data were examined for the subset of patients entering the study having TG levels greater than 500 mg/dL, an unexpectedly large decrease in TG levels for those patients treated with gemcabene was seen as compared with the broader group of patients having triglyceride levels ≧200 mg/dL. Twenty-seven patients having TG levels >500 mg/dL were evaluated in the study.
# FIGS. 2a-e, 3a-e, 4a-e, 5a-e, 6a-e, 7a-e and 8a-e are graphs illustrating the serum levels of TG, HDL-C, ApoA-I, ApoC-III, VLDL-C, hs CRP, and ApoB for individual patients at baseline and at 12 weeks post treatment with doses of 150, 300, 600, and 900 mg/day of gemcabene, or placebo.
# Tables 1-7 provide the data expressed as average percent and mean percent decrease or increase, as appropriate, for each of these parameters at each of the doses tested.
# [4] = tested on: patient with triglyceride level of 1030 mg/dl; experiment: Example 5: patient with triglyceride level of 1030 mg/dl treated with gemcabene; format: in vivo, human; details: 300 mg once per day plus low fat diet, 12-week follow-up, initial 1030 mg/dl
# Protocol: A patient, as part of a routine annual examination, has blood tests which reveal that the patient has an LDL-C level of 200 mg/dl and a triglyceride level of 1030 mg/dl. This high triglyceride level places them at high risk for developing pancreatitis. According to the […] guidelines, the patient's treatment is initially targeted to address the high triglyceride level. The patient is administered gemcabene at a dose of 300 mg once per day and is placed on a low fat diet.
# CYP3A4 [5] = molecular target: T1, CYP3A4; details: simvastatin (a CYP3A4 substrate); cited from earlier work
# T1 sequence (P08684 whole entry): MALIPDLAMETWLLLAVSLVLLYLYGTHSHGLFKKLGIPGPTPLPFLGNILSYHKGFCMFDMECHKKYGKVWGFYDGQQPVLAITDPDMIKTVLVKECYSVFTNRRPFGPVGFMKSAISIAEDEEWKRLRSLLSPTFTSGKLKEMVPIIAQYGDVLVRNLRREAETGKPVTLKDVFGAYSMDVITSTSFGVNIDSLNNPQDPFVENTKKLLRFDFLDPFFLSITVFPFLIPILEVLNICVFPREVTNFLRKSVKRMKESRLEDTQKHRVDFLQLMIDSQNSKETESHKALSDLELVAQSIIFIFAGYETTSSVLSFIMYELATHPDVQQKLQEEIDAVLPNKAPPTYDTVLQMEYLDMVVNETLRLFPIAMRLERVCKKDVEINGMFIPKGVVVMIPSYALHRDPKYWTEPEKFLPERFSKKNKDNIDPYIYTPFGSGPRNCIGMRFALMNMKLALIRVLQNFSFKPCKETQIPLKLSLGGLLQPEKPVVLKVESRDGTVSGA
structure (smiles),measurement,setting,value
"CC(C)(CCCCOCCCCC(C)(C)C(=O)O)C(=O)O [Gemcabene, 6,6′-oxybis-(2,2′-dimethylhexanoic acid)]",inhibition of CYP3A4,CYP3A4 [1],low level of inhibition
same,reduction in triglyceride levels,[2]; 150 mg dose,26.6%
same,reduction in triglyceride levels,[2]; 300 mg dose,38.9%
same,ApoA-I average % increase,"[3]; 150 mg/day, 12 weeks",9.27%
same,ApoB average % decrease,"[3]; 150 mg/day, 12 weeks",−16.15%
same,ApoC-III average % decrease,"[3]; 150 mg/day, 12 weeks",36.95%
same,HDL-C average % increase,"[3]; 150 mg/day, 12 weeks",32.59%
same,VLDL-C average % decrease,"[3]; 150 mg/day, 12 weeks",48.50%
same,hs-CRP average % decrease,"[3]; 150 mg/day, 12 weeks",−4.02%
same,Triglycerides average % decrease,[3]; 150 mg/day,52.09%
same,Triglycerides average % decrease,"[3]; 150 mg/day, listed as gemcabene",52%
same,ApoA-I average % increase,"[3]; 300 mg/day, 12 weeks",−6.17%
same,ApoB average % decrease,"[3]; 300 mg/day, 12 weeks",1.25%
same,ApoC-III average % decrease,"[3]; 300 mg/day, 12 weeks",49.41%
same,HDL-C average % increase,"[3]; 300 mg/day, 12 weeks",11.69%
same,VLDL-C average % decrease,"[3]; 300 mg/day, 12 weeks",51.86%
same,hs-CRP average % decrease,"[3]; 300 mg/day, 12 weeks",−429.19%
same,Triglycerides average % decrease,[3]; 300 mg/day,61.18%
same,Triglycerides average % decrease,"[3]; 300 mg/day, listed as gemcabene",61%
same,ApoA-I average % increase,"[3]; 600 mg/day, 12 weeks",−3.31%
same,ApoB average % decrease,"[3]; 600 mg/day, 12 weeks",−3.70%
same,ApoC-III average % decrease,"[3]; 600 mg/day, 12 weeks",30.89%
same,HDL-C average % increase,"[3]; 600 mg/day, 12 weeks",−4.02%
same,VLDL-C average % decrease,"[3]; 600 mg/day, 12 weeks",28.73%
same,hs-CRP average % decrease,"[3]; 600 mg/day, 12 weeks",33.50%
same,Triglycerides average % decrease,[3]; 600 mg/day,36.44%
same,ApoA-I average % increase,"[3]; 900 mg/day, 12 weeks",0.47%
same,ApoB average % decrease,"[3]; 900 mg/day, 12 weeks",2.26%
same,ApoC-III average % decrease,"[3]; 900 mg/day, 12 weeks",20.36%
same,HDL-C average % increase,"[3]; 900 mg/day, 12 weeks",1.03%
same,VLDL-C average % decrease,"[3]; 900 mg/day, 12 weeks",17.10%
same,hs-CRP average % decrease,"[3]; 900 mg/day, 12 weeks",66.64%
same,Triglycerides average % decrease,[3]; 900 mg/day,0.90%
same,increase in HDL-C levels,"[3]; one patient (FIG. 1), 150 mg/day, 12 weeks",27%
same,serum triglyceride level after treatment,"[3]; one patient (FIG. 1), 150 mg/day, 12 weeks post-treatment, TG 550 mg/dL at initiation",210 mg/dL
same,fall in triglyceride level,"[3]; one patient (FIG. 1), 150 mg/day, 12 weeks, TG 550 mg/dL at initiation",62%
same,triglyceride level at follow-up,[4],363 mg/dL
same,effect in drug-drug interaction study with simvastatin,CYP3A4 [5],no clinically relevant effect
